Series [1] deals with Left cardiac atrium. The series can be described thus: Negative ionotropic activity in guinea pig left atrium assessed as decrease in developed tension driven at 1 Hz. The settings on record: Cavia porcellus. Type of series: functional, tissue-based.
The species entered for series [2] is Cavia porcellus. The series can be described thus: Antagonist activity at Cav1.2a in K+-depolarized guinea pig aortic strips assessed as inhibition of calcium-induced contraction at 10^-4 M relative to control. Type of series: tissue-based. Set-up: scale not given: the % may be the effect or the level left. The settings on record: Aorta.
Series [3] relates to Left cardiac atrium. As to the kind of experiment: Negative ionotropic activity in guinea pig left atrium assessed as decrease in developed tension driven at 1 Hz at 10^-6 M relative to control. Type of series: functional, Cavia porcellus. Set-up: scale not given: the % may be the effect or the level left.
Series [4] relates to Right cardiac atrium. As to the kind of experiment: Negative chronotropic activity in guinea pig […] atrium assessed as decrease in atrial rate on spontaneous beating at 10^-5 M relative to control. The class given is functional, Cavia porcellus. Set-up: scale not given: the % may be the effect or the level left.
For series [5], the species on record is Cavia porcellus. The series can be described thus: Antagonist activity at Cav1.2a in K+-depolarized guinea pig aortic strips assessed as inhibition of calcium-induced contraction at 5 x 10^-5 M relative to control. The class given is tissue-based. The arrangement: scale not given: the % may be the effect or the level left. To be noted: Aorta.
Series [6] deals with Left cardiac atrium. The series can be described thus: Negative ionotropic activity in guinea pig left atrium assessed as decrease in developed tension driven at 1 Hz at 5 x 10^-7 M relative to control. Set-up: scale not given: the % may be the effect or the level left. The class given is functional, Cavia porcellus.
Series [7] relates to Cav1.2b. The series can be described thus: Antagonist activity at Cav1.2b in K+-depolarized guinea pig ileum longitudinal smooth muscle assessed as inhibition of calcium-induced contraction at 5 x 10^-6 M relative to control. The class given is tissue-based, Cavia porcellus. The settings on record: read-out: Activity.
Series [8] deals with Right cardiac atrium. As to the kind of experiment: Negative chronotropic activity in guinea pig […] atrium assessed as decrease in atrial rate on spontaneous beating at 5 x 10^-7 M relative to control. The class given is functional, Cavia porcellus. The arrangement: scale not given: the % may be the effect or the level left.
Series [9] is described as follows: Antagonist activity at Cav1.2b in K+-depolarized guinea pig ileum longitudinal smooth muscle assessed as inhibition of calcium-induced contraction. The class given is tissue-based. To be noted: Cavia porcellus.
The test system of series [10] is Right cardiac atrium. The series can be described thus: Negative chronotropic activity in guinea pig […] atrium assessed as decrease in atrial rate on spontaneous beating at 10^-4 M relative to control. The class given is functional, Cavia porcellus. Set-up: scale not given: the % may be the effect or the level left.
The subject of series [11] is Cav1.2b. The series can be described thus: Antagonist activity at Cav1.2b in K+-depolarized guinea pig ileum longitudinal smooth muscle assessed as inhibition of calcium-induced contraction at 10^-4 M relative to control. The settings on record: read-out: Activity. The class given is tissue-based, Cavia porcellus.
Series [12] in a line: Selectivity ratio of IC50 for Cav1.2b in K+-depolarized guinea pig ileum longitudinal smooth muscle to IC50 for Cav1.2a in K+-depolarized guinea pig aortic strips. Set-up: species or system Cavia porcellus, Muscle tissue.
Series [13] can be described thus: Antagonist activity at Cav1.2a in K+-depolarized guinea pig aortic strips assessed as inhibition of calcium-induced contraction. The class given is tissue-based. To be noted: Cavia porcellus, Aorta.
The test system of series [14] is Left cardiac atrium. As to the kind of experiment: Negative ionotropic activity in guinea pig left atrium assessed as decrease in developed tension driven at 1 Hz at 5 x 10^-6 M relative to control. The class given is functional, Cavia porcellus. The arrangement: scale not given: the % may be the effect or the level left.
The subject of series [15] is Right cardiac atrium. The series can be described thus: Negative chronotropic activity in guinea pig […] atrium assessed as decrease in atrial rate on spontaneous beating at 5 x 10^-5 M relative to control. The class given is functional, Cavia porcellus. Set-up: scale not given: the % may be the effect or the level left.
In series [16] the test system is Left cardiac atrium. The series can be described thus: Ratio of diltiazem EC50 to compound EC50 for negative ionotropic activity in guinea pig left atrium assessed as decrease in developed tension driven at 1 Hz. The class given is functional, Cavia porcellus.
Series [17] relates to Cav1.2b. As to the kind of experiment: Antagonist activity at Cav1.2b in K+-depolarized guinea pig ileum longitudinal smooth muscle assessed as inhibition of calcium-induced contraction at 10^-6 M relative to control. Type of series: tissue-based, Cavia porcellus. To be noted: read-out: Activity.
Series [18] has as its system Right cardiac atrium. The series can be described thus: Negative chronotropic activity in guinea pig […] atrium assessed as decrease in atrial rate on spontaneous beating. Type of series: functional. The settings on record: Cavia porcellus.
Series [19] has as its system Right cardiac atrium. As to the kind of experiment: Negative chronotropic activity in guinea pig […] atrium assessed as decrease in atrial rate on spontaneous beating at 10^-6 M relative to control. The class given is functional, Cavia porcellus. Set-up: scale not given: the % may be the effect or the level left.
The test system of series [20] is Left cardiac atrium. As to the kind of experiment: Negative ionotropic activity in guinea pig left atrium assessed as decrease in developed tension driven at 1 Hz at 10^-5 M relative to control. Type of series: functional, Cavia porcellus. The arrangement: scale not given: the % may be the effect or the level left.
Series [21] is described as follows: Selectivity ratio of IC50 for Cav1.2a in K+-depolarized guinea pig aortic strips to IC50 for Cav1.2b in K+-depolarized guinea pig ileum longitudinal smooth muscle. Set-up: species or system Cavia porcellus, Muscle tissue.
Series [22] deals with Cav1.2b. As to the kind of experiment: Antagonist activity at Cav1.2b in K+-depolarized guinea pig ileum longitudinal smooth muscle assessed as inhibition of calcium-induced contraction at 5 x 10^-5 M relative to control. Type of series: tissue-based, Cavia porcellus. To be noted: read-out: Activity.
Series [23] has as its system Right cardiac atrium. As to the kind of experiment: Negative chronotropic activity in guinea pig […] atrium assessed as decrease in atrial rate on spontaneous beating at 5 x 10^-6 M relative to control. The arrangement: scale not given: the % may be the effect or the level left. Type of series: functional, Cavia porcellus.
The species named for series [24] is Cavia porcellus. As to the kind of experiment: Antagonist activity at Cav1.2a in K+-depolarized guinea pig aortic strips assessed as inhibition of calcium-induced contraction at 5 x 10^-8 M relative to control. Type of series: tissue-based. Set-up: scale not given: the % may be the effect or the level left. To be noted: Aorta.
For series [25], the system named is Right cardiac atrium. As to the kind of experiment: Negative chronotropic activity in guinea pig […] atrium assessed as decrease in atrial rate on spontaneous beating at 5 x 10^-8 M relative to control. The class given is functional, Cavia porcellus. Set-up: scale not given: the % may be the effect or the level left.
Series [26] is described as follows: Selectivity ratio of IC50 for Cav1.2b in K+-depolarized guinea pig ileum longitudinal smooth muscle to EC50 for negative ionotropic activity in guinea pig left atrium. Set-up: species or system Cavia porcellus, Muscle tissue.

With `CCO[C@]1(c2ccc(Br)cc2)SC=C(C)n2c1noc2=O`, the EC50 in the series on Left cardiac atrium [1] was found to be 70 nM. Besides, the Activity in the series listed under Cavia porcellus [2] stood at 11%; with Left cardiac atrium [3] it was 77%; in the series on Right cardiac atrium [4] it was 16%.

`CCO[C@]1(c2ccc(Br)cc2)Sc2ccccc2-n2c1noc2=O`: the EC50 with Left cardiac atrium [1] came out at 9.3 nM. In addition, the Activity in the series listed under Cavia porcellus [5] came to 8%; in the series with Left cardiac atrium [6] it was 64%; with Right cardiac atrium [8], 20%. In addition, the inhibition at 5 µM in the series with Cav1.2b [7] amounted to 78%. In addition, the half-maximal inhibitory concentration (IC50) in series [9] came out at 20 nM.

For `CCOC1(c2ccc(Br)cc2)Sc2ccccc2-n2c1noc2=O` (racemic), in the series with Left cardiac atrium [1], the EC50 came out at 13 nM. For the same compound, the Activity came out at 4% in the series filed under Cavia porcellus [2], 81% in the series on Left cardiac atrium [3] and 7% in the series on Right cardiac atrium [10]. Besides, the inhibition at 100 µM in the series with Cav1.2b [11] was determined as 87%. Moreover, the “Ratio IC50” value in series [12] is on record as 640. Further, the figures for the IC50 in [9] and in [13] were 8320 nM and 13 nM, respectively.

Take `CC1=CS[C@](OCC(F)(F)F)(c2ccc(Br)cc2)c2noc(=O)n21`: the EC50 in the series on Left cardiac atrium [1] is 26 nM. The Activity in the series filed under Cavia porcellus [2] amounted to 9%; in the series on Left cardiac atrium [14] it was 82%; in the series on Right cardiac atrium [15], 40%. Besides, in the series with Cav1.2b [11], the inhibition at 100 µM was determined as 98%. Moreover, in [9], the IC50 is 12200 nM.

In the case of `CC1=CSC(OCC(F)(F)F)(c2ccc(Br)cc2)c2noc(=O)n21` (racemic), in the series with Left cardiac atrium [1], the 50% effective concentration (EC50) turned out to be 22 nM. Besides, the results for the Activity in the series listed under Cavia porcellus [2], with Left cardiac atrium [14] and in the series with Right cardiac atrium [4] were 28%, 76% and 4%, respectively. In the series on Cav1.2b [11], the inhibition at 100 µM is 73%. Besides, the “Ratio EC50” value with Left cardiac atrium [16] was 36. For the same compound, the IC50 in series [9] was 25900 nM.

`COc1ccc([C@@H]2Sc3ccccc3N(CCN(C)C)C(=O)[C@@H]2OC(C)=O)cc1` [DILTIAZEM]: the inhibition at 1 µM in the series on Cav1.2b [17] was 98%. The concentration for a half-maximal effect (EC50) with Left cardiac atrium [1] stood at 790 nM. In addition, the Activity is 88% in the series filed under Cavia porcellus [2], 94% with Right cardiac atrium [19] and 78% in the series on Left cardiac atrium [20]. The concentration for an effect of 30% (EC30) in the series on Right cardiac atrium [18] is 70 nM. Besides, the “Ratio IC50” value in series [21] was found to be 24. In addition, the concentration for half-maximal inhibition (IC50) was 110 nM in series [9] and 2600 nM in series [13].

As to `O=c1onc2n1-c1ccccc1S[C@]2(OCC(F)(F)F)c1ccc(Br)cc1`, the EC50 in the series with Left cardiac atrium [1] was 9.8 nM. For the same compound, the Activity in the series listed under Cavia porcellus [2] came out at 1%; in the series with Left cardiac atrium [3], 77%; in the series with Right cardiac atrium [4], 24%. For the same compound, the inhibition at 100 µM with Cav1.2b [11] was determined as 54%. For the same compound, in [9], the half-maximal inhibitory concentration (IC50) was determined as 4580 nM.

As to `CC1=CS[C@@](OCC(F)(F)F)(c2ccc(Br)cc2)c2noc(=O)n21`, the EC50 in the series on Left cardiac atrium [1] came to 34 nM. The results for the Activity in the series filed under Cavia porcellus [2], with Left cardiac atrium [3] and in the series on Right cardiac atrium [10] were 12%, 82% and 16%, respectively. Further, the inhibition at 100 µM in the series on Cav1.2b [11] turned out to be 85%. For the same compound, in series [9], the IC50 was 19000 nM.

In the case of `CCOC1(c2ccc(Br)cc2)SC=C(C)n2c1noc2=O` (racemic), the EC50 with Left cardiac atrium [1] was 40 nM. In addition, the results for the Activity in the series listed under Cavia porcellus [2], in the series with Left cardiac atrium [3] and in the series with Right cardiac atrium [10] were 19%, 78% and 5%, respectively. Moreover, in the series on Cav1.2b [11], the inhibition at 100 µM came out at 3%. Further, the “Ratio EC50” value in the series on Left cardiac atrium [16] was found to be 20.

Regarding `CCO[C@@]1(c2ccc(Br)cc2)Sc2ccccc2-n2c1noc2=O`, the inhibition at 50 µM with Cav1.2b [22] stood at 60%. The Activity in the series filed under Cavia porcellus [5] came to 2%; with Left cardiac atrium [14] it was 25%; in the series with Right cardiac atrium [23] it was 10%. Moreover, the IC50 in [9] was 5190 nM.

As for `O=c1onc2n1-c1ccccc1S[C@@]2(OCC(F)(F)F)c1ccc(Br)cc1`, the concentration for a half-maximal effect (EC50) in the series on Left cardiac atrium [1] amounted to 11 nM. Besides, the Activity in the series listed under Cavia porcellus [24] was found to be 28%; in the series with Left cardiac atrium [6], 52%; in the series on Right cardiac atrium [25], 25%. The inhibition at 100 µM with Cav1.2b [11] came out at 47%.

`O=c1onc2n1-c1ccccc1SC2(OCC(F)(F)F)c1ccc(Br)cc1` (racemic): the concentration giving a half-maximal response (EC50) in the series on Left cardiac atrium [1] is 6 nM. The Activity in the series filed under Cavia porcellus [2] is 21%; in the series on Left cardiac atrium [3], 75%; in the series with Right cardiac atrium [10], 7%. For the same compound, the inhibition at 100 µM in the series with Cav1.2b [11] was found to be 54%. Further, the Selectivity ratio in series [26] is 1965. In series [9], the IC50 stood at 11800 nM.

On to `CCO[C@@]1(c2ccc(Br)cc2)SC=C(C)n2c1noc2=O`, for which the Activity came out at 7% in the series filed under Cavia porcellus [2], 58% with Left cardiac atrium [3] and 15% in the series on Right cardiac atrium [15].

One may read the EC50 as the concentration giving half of the maximal effect. The IC50 is the concentration needed to halve the response being measured. One may read the EC30 as the concentration needed for an effect of 30%.

The values are drawn from ChEMBL document CHEMBL3407488, “Synthesis and L-type calcium channel blocking activity of new chiral oxadiazolothiazinones” (Eur J Med Chem, 2015).
